This note sets out measurements from PubChem BioAssay (NCI).

Some test systems named below: 786-0 renal; KM12 colon; OVCAR-3 ovarian; OVCAR-4 ovarian; PC-3 prostate; SF-295 CNS; SF-539 CNS; SK-MEL-28 melanoma; SNB-75 CNS; SR leukemia.
Common to all, as to assay: NCI tumour cell line growth inhibition, 48 h

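Method: 48-hour compound exposure of cells in 96-well plates, five concentrations, linear interpolation of endpoints. Abbreviation: GI50, concentration required for 50% inhibition of growth. TGI is the concentration that stops growth completely.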

Consider `COC(=O)[C@]12CC[C@@H](C)[C@H](C)[C@@H]1C1=CC[C@@H]3[C@@]4(C)C(C=O)=C[C@@](C)(COS(C)(=O)=O)C4[C@H](O)C[C@@]3(C)[C@]1(C)CC2` (stereo partly drawn), for which the GI50 was 1.79 µM in the assay on 786-0 renal; 1.83 µM in the assay with KM12 colon; 1.7 µM in the assay on OVCAR-3 ovarian; 1.84 µM in the assay with OVCAR-4 ovarian; 1.39 µM with PC-3 prostate; 1.31 µM in the assay with SF-295 CNS. The GI50 in the assay with SF-539 CNS is 1.83 µM; in the assay on SK-MEL-28 melanoma, 2.15 µM; in the assay on SNB-75 CNS, 1.51 µM; with SR leukemia it was 0.299 µM. Further, the TGI is 3.58 µM with 786-0 renal; 3.96 µM in the assay with KM12 colon; 3.33 µM in the assay on OVCAR-3 ovarian; 6.06 µM in the assay with OVCAR-4 ovarian; 6.48 µM with PC-3 prostate; 2.77 µM in the assay with SF-295 CNS. Moreover, the TGI in the assay on SF-539 CNS came to 3.71 µM; in the assay on SK-MEL-28 melanoma, 5.05 µM; with SNB-75 CNS, 8.86 µM; with SR leukemia, 1.38 µM.
For `COc1ccc(-c2cc(-c3cccc(NS(C)(=O)=O)c3)nc(N)c2C#N)cc1`, the GI50 in the assay on 786-0 renal is 0.283 µM; with KM12 colon, 0.118 µM; with OVCAR-3 ovarian it was 0.0298 µM; in the assay on OVCAR-4 ovarian it was 1.24 µM; in the assay on PC-3 prostate it was 0.0971 µM; with SF-295 CNS it was 0.0497 µM. In addition, the GI50 was 0.0478 µM in the assay with SF-539 CNS, 0.18 µM in the assay with SK-MEL-28 melanoma, 0.0316 µM with SNB-75 CNS and 0.047 µM in the assay on SR leukemia. In addition, the TGI in the assay with 786-0 renal was determined as 13.7 µM; with KM12 colon, 9.12 µM; in the assay with OVCAR-3 ovarian it was 0.115 µM; in the assay with OVCAR-4 ovarian it was 99.6 µM; in the assay on PC-3 prostate it was 14.2 µM; with SF-295 CNS, 2.87 µM. Moreover, the TGI in the assay with SF-539 CNS is 0.491 µM; in the assay on SK-MEL-28 melanoma, 47.2 µM; in the assay with SNB-75 CNS it was 0.769 µM; in the assay on SR leukemia it was 25.7 µM.
As for `COc1c(Cl)ccc2c(-c3nc4cc(Cl)c(F)cc4s3)cc(=O)oc12`, the GI50 with 786-0 renal was 2.64 µM; with KM12 colon, 4.06 µM; in the assay on OVCAR-3 ovarian, 3.94 µM; with OVCAR-4 ovarian, 12.9 µM; in the assay on PC-3 prostate, 4.46 µM; with SF-295 CNS it was 10.4 µM. Besides, the GI50 was 1.77 µM in the assay on SF-539 CNS, 26.5 µM with SK-MEL-28 melanoma, 1.56 µM with SNB-75 CNS and 2.2 µM in the assay on SR leukemia. The TGI with 786-0 renal stood at 5.65 µM; in the assay on KM12 colon, 22.1 µM; with OVCAR-3 ovarian it was 22 µM; in the assay with OVCAR-4 ovarian it was 70.6 µM; in the assay with PC-3 prostate, 15.5 µM; in the assay with SF-295 CNS it was 52 µM. For the same molecule, the TGI in the assay with SF-539 CNS was 3.36 µM; in the assay on SK-MEL-28 melanoma it was more than 78 µM; in the assay on SNB-75 CNS, 3.28 µM; with SR leukemia, 8.23 µM.
As to `CN(C)CCSCCO`, the TGI in the assay on 786-0 renal, with KM12 colon, with OVCAR-3 ovarian, in the assay with OVCAR-4 ovarian, in the assay on PC-3 prostate and with SF-295 CNS was more than 100 µM each time. Also, the TGI in the assay on SF-539 CNS, in the assay on SK-MEL-28 melanoma, in the assay with SNB-75 CNS and in the assay on SR leukemia was more than 100 µM in each case.
Regarding `CN(CC(=O)O)Cc1oc(CO)cc(=O)c1O`, the TGI in the assay with 786-0 renal, in the assay on KM12 colon, in the assay with OVCAR-3 ovarian, in the assay on OVCAR-4 ovarian, in the assay on PC-3 prostate and in the assay with SF-295 CNS was more than 100 µM throughout. In addition, the TGI with SF-539 CNS, in the assay with SK-MEL-28 melanoma, with SNB-75 CNS and with SR leukemia was more than 100 µM each time.
Consider `Cc1cc(N(CCCNc2ccnc3cc(Cl)ccc23)Cc2ccc3c(c2)OCO3)nc(N2CCCCC2)n1`, for which the GI50 was 1.57 µM with 786-0 renal; 2.15 µM with KM12 colon; 1.63 µM in the assay with OVCAR-3 ovarian; 1.93 µM in the assay with OVCAR-4 ovarian; 2.1 µM in the assay on PC-3 prostate; 1.59 µM in the assay on SF-295 CNS. The GI50 in the assay on SF-539 CNS is 1.82 µM; with SK-MEL-28 melanoma, 1.94 µM; in the assay on SNB-75 CNS, 1.47 µM; in the assay with SR leukemia, 1.41 µM. The TGI amounted to 3.09 µM with 786-0 renal; 5.39 µM in the assay on KM12 colon; 3.19 µM in the assay with OVCAR-3 ovarian; 6.45 µM in the assay on OVCAR-4 ovarian; 5.38 µM in the assay on PC-3 prostate; 3.39 µM in the assay with SF-295 CNS. Besides, the TGI was found to be 3.36 µM in the assay with SF-539 CNS, 3.66 µM in the assay with SK-MEL-28 melanoma, 3.33 µM in the assay on SNB-75 CNS and 4.14 µM in the assay on SR leukemia.
As to `Nc1cc(S(N)(=O)=O)ccc1SSc1ccc(S(N)(=O)=O)cc1N`, the TGI with 786-0 renal, in the assay on KM12 colon, in the assay with OVCAR-3 ovarian, in the assay on OVCAR-4 ovarian, in the assay on PC-3 prostate and in the assay on SF-295 CNS was more than 100 µM throughout. For the same molecule, the TGI in the assay on SF-539 CNS, in the assay on SK-MEL-28 melanoma, in the assay on SNB-75 CNS and in the assay with SR leukemia was more than 100 µM each time.
As for `C[C@@H](COCCC(=O)N1CCN(c2ncc(C(F)(F)F)cn2)CC1)Nc1cn[nH]c(=O)c1C(F)(F)F`, the GI50 with 786-0 renal was 59.1 µM; in the assay with KM12 colon, more than 100 µM; in the assay with OVCAR-3 ovarian, 97.5 µM; in the assay with OVCAR-4 ovarian, 27.8 µM; with PC-3 prostate, 45.4 µM; with SF-295 CNS it was 19.5 µM. Moreover, the GI50 in the assay with SF-539 CNS was 16.4 µM; in the assay on SK-MEL-28 melanoma, more than 100 µM; in the assay with SNB-75 CNS it was 47.8 µM; in the assay on SR leukemia it was 4.04 µM. Further, the TGI in the assay on 786-0 renal, in the assay on KM12 colon, with OVCAR-3 ovarian, with OVCAR-4 ovarian, in the assay on PC-3 prostate and with SF-295 CNS was more than 100 µM each time. Further, the TGI in the assay with SF-539 CNS, with SK-MEL-28 melanoma, with SNB-75 CNS and in the assay with SR leukemia was more than 100 µM throughout.
Regarding `COc1ccc2c(c1)c(-c1ccc(-c3cn(C)c4ccc(OC)cc34)[nH]1)cn2C`, the GI50 in the assay on 786-0 renal is 12.2 µM; with KM12 colon, 2.75 µM; with OVCAR-4 ovarian, 1.94 µM; with PC-3 prostate, 1.58 µM; in the assay with SF-295 CNS, 4.59 µM; in the assay on SF-539 CNS, 1.92 µM. Also, the figures for the GI50 in the assay with SK-MEL-28 melanoma, in the assay on SNB-75 CNS and in the assay on SR leukemia were 3.18 µM, 2.25 µM and 1.31 µM, respectively. The TGI in the assay on 786-0 renal is 36.1 µM; in the assay with KM12 colon, 9.59 µM; in the assay on OVCAR-4 ovarian it was 4.01 µM; with PC-3 prostate, 5.71 µM; in the assay on SF-295 CNS it was 45.7 µM; in the assay with SF-539 CNS, 3.96 µM. The figures for the TGI in the assay on SK-MEL-28 melanoma, with SNB-75 CNS and in the assay with SR leukemia were 12.4 µM, 6.26 µM and 4.01 µM, respectively.
